In PubChem BioAssay (NCI):
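Method: 48-hour compound exposure of cells in 96-well plates, five concentrations, linear interpolation of endpoints. TGI marks complete inhibition of growth.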

Key:
Experiment in all cases: DTP human tumour cell line panel, 48 h
786-0 renal = system: 786-0 renal
A498 renal = system: A498 renal
A549 NSCLC = system: A549 NSCLC
ACHN renal = system: ACHN renal
CAKI-1 renal = system: CAKI-1 renal
CCRF-CEM leukemia = system: CCRF-CEM leukemia
COLO 205 colon = system: COLO 205 colon
DLD-1 colon = system: DLD-1 colon
DMS 114 small cell lung = system: DMS 114 small cell lung
DMS 273 small cell lung = system: DMS 273 small cell lung
HCT-116 colon = system: HCT-116 colon
HCT-15 colon = system: HCT-15 colon
HL-60(TB) leukemia = system: HL-60(TB) leukemia
HOP-18 NSCLC = system: HOP-18 NSCLC
HOP-62 NSCLC = system: HOP-62 NSCLC
HOP-92 NSCLC = system: HOP-92 NSCLC
HT29 colon = system: HT29 colon
IGROV1 ovarian = system: IGROV1 ovarian
K-562 leukemia = system: K-562 leukemia
KM12 colon = system: KM12 colon
KM20L2 colon = system: KM20L2 colon
LOX IMVI melanoma = system: LOX IMVI melanoma
M14 melanoma = system: M14 melanoma
M19-MEL melanoma = system: M19-MEL melanoma
MALME-3M melanoma = system: MALME-3M melanoma
MOLT-4 leukemia = system: MOLT-4 leukemia
NCI-H226 lung = system: NCI-H226 lung
NCI-H23 lung = system: NCI-H23 lung
NCI-H460 lung = system: NCI-H460 lung
NCI-H522 lung = system: NCI-H522 lung
OVCAR-3 ovarian = system: OVCAR-3 ovarian
OVCAR-4 ovarian = system: OVCAR-4 ovarian
OVCAR-5 ovarian = system: OVCAR-5 ovarian
OVCAR-8 ovarian = system: OVCAR-8 ovarian
RPMI-8226 leukemia = system: RPMI-8226 leukemia
SF-268 CNS = system: SF-268 CNS
SF-295 CNS = system: SF-295 CNS
SF-539 CNS = system: SF-539 CNS
SK-MEL-2 melanoma = system: SK-MEL-2 melanoma
SK-MEL-28 melanoma = system: SK-MEL-28 melanoma
SK-MEL-5 melanoma = system: SK-MEL-5 melanoma
SK-OV-3 ovarian = system: SK-OV-3 ovarian
SN12C renal = system: SN12C renal
SNB-19 CNS = system: SNB-19 CNS
SNB-75 CNS = system: SNB-75 CNS
SNB-78 CNS = system: SNB-78 CNS
SR leukemia = system: SR leukemia
SW-620 colon = system: SW-620 colon
TK-10 renal = system: TK-10 renal
U251 CNS = system: U251 CNS
UACC-257 melanoma = system: UACC-257 melanoma
UACC-62 melanoma = system: UACC-62 melanoma
UO-31 renal = system: UO-31 renal
XF 498 CNS = system: XF 498 CNS
EKVX NSCLC = system: EKVX NSCLC
HCC-2998 colon = system: HCC-2998 colon
RXF 393 renal = system: RXF 393 renal
LXFL 529 NSCLC = system: LXFL 529 NSCLC

Structure (SMILES): Nc1nc(SCCC/C=C/B(O)O)nc2c1ncn2C1OC(COP(=O)(O)O)C(O)C1O (stereo not drawn)
- TGI (786-0 renal): > 203 µM
- TGI (A498 renal): > 203 µM
- TGI (A549 NSCLC): > 203 µM
- TGI (ACHN renal): > 203 µM
- TGI (CAKI-1 renal): > 203 µM
- TGI (CCRF-CEM leukemia): > 203 µM
- TGI (COLO 205 colon): > 203 µM
- TGI (DLD-1 colon): > 203 µM
- TGI (DMS 114 small cell lung): > 203 µM
- TGI (DMS 273 small cell lung): > 203 µM
- TGI (HCT-116 colon): > 203 µM
- TGI (HCT-15 colon): > 203 µM
- TGI (HL-60(TB) leukemia): > 203 µM
- TGI (HOP-18 NSCLC): > 203 µM
- TGI (HOP-62 NSCLC): > 203 µM
- TGI (HOP-92 NSCLC): > 203 µM
- TGI (HT29 colon): > 203 µM
- TGI (IGROV1 ovarian): > 203 µM
- TGI (K-562 leukemia): > 203 µM
- TGI (KM12 colon): > 203 µM
- TGI (KM20L2 colon): > 203 µM
- TGI (LOX IMVI melanoma): > 203 µM
- TGI (M14 melanoma): > 203 µM
- TGI (M19-MEL melanoma): > 203 µM
- TGI (MALME-3M melanoma): > 203 µM
- TGI (MOLT-4 leukemia): > 203 µM
- TGI (NCI-H226 lung): > 203 µM
- TGI (NCI-H23 lung): > 203 µM
- TGI (NCI-H460 lung): > 203 µM
- TGI (NCI-H522 lung): > 203 µM
- TGI (OVCAR-3 ovarian): > 203 µM
- TGI (OVCAR-4 ovarian): > 203 µM
- TGI (OVCAR-5 ovarian): > 203 µM
- TGI (OVCAR-8 ovarian): > 203 µM
- TGI (RPMI-8226 leukemia): > 203 µM
- TGI (SF-268 CNS): > 203 µM
- TGI (SF-295 CNS): > 203 µM
- TGI (SF-539 CNS): > 203 µM
- TGI (SK-MEL-2 melanoma): > 203 µM
- TGI (SK-MEL-28 melanoma): > 203 µM
- TGI (SK-MEL-5 melanoma): > 203 µM
- TGI (SK-OV-3 ovarian): > 203 µM
- TGI (SN12C renal): > 203 µM
- TGI (SNB-19 CNS): > 203 µM
- TGI (SNB-75 CNS): > 203 µM
- TGI (SNB-78 CNS): > 203 µM
- TGI (SR leukemia): > 203 µM
- TGI (SW-620 colon): > 203 µM
- TGI (TK-10 renal): > 203 µM
- TGI (U251 CNS): > 203 µM
- TGI (UACC-257 melanoma): > 203 µM
- TGI (UACC-62 melanoma): > 203 µM
- TGI (UO-31 renal): > 203 µM
- TGI (XF 498 CNS): > 203 µM

Structure (SMILES): COc1ccc(S(=O)(=O)N/N=C\c2cc([N+](=O)[O-])cc(I)c2O)c(OC)c1OC
- TGI (786-0 renal): 61.4 µM
- TGI (A498 renal): 83 µM
- TGI (A549 NSCLC): > 100 µM
- TGI (ACHN renal): 92.1 µM
- TGI (CAKI-1 renal): 67.4 µM
- TGI (CCRF-CEM leukemia): 59.1 µM
- TGI (COLO 205 colon): 45 µM
- TGI (DLD-1 colon): 95.1 µM
- TGI (DMS 114 small cell lung): 64.6 µM
- TGI (DMS 273 small cell lung): > 100 µM
- TGI (EKVX NSCLC): 80.7 µM
- TGI (HCC-2998 colon): 86.8 µM
- TGI (HCT-15 colon): 55.8 µM
- TGI (HL-60(TB) leukemia): 71.4 µM
- TGI (HOP-18 NSCLC): 63.5 µM
- TGI (HOP-92 NSCLC): 37 µM
- TGI (HT29 colon): > 100 µM
- TGI (IGROV1 ovarian): > 100 µM
- TGI (K-562 leukemia): > 100 µM
- TGI (KM12 colon): > 100 µM
- TGI (KM20L2 colon): > 100 µM
- TGI (LOX IMVI melanoma): 92.4 µM
- TGI (M14 melanoma): 77.6 µM
- TGI (M19-MEL melanoma): 87.2 µM
- TGI (MALME-3M melanoma): 85.2 µM
- TGI (MOLT-4 leukemia): 64.9 µM
- TGI (NCI-H226 lung): 41.9 µM
- TGI (NCI-H23 lung): 67.1 µM
- TGI (NCI-H460 lung): > 100 µM
- TGI (OVCAR-3 ovarian): 62.8 µM
- TGI (OVCAR-4 ovarian): 72.7 µM
- TGI (OVCAR-5 ovarian): > 100 µM
- TGI (OVCAR-8 ovarian): > 100 µM
- TGI (RPMI-8226 leukemia): 71.6 µM
- TGI (RXF 393 renal): 54.6 µM
- TGI (SF-268 CNS): 75 µM
- TGI (SF-295 CNS): > 100 µM
- TGI (SK-MEL-2 melanoma): 45.3 µM
- TGI (SK-MEL-28 melanoma): 64.7 µM
- TGI (SK-MEL-5 melanoma): 45.5 µM
- TGI (SK-OV-3 ovarian): 64 µM
- TGI (SN12C renal): > 100 µM
- TGI (SNB-19 CNS): 76.3 µM
- TGI (SNB-75 CNS): 70.1 µM
- TGI (SNB-78 CNS): 74 µM
- TGI (SW-620 colon): > 100 µM
- TGI (TK-10 renal): > 100 µM
- TGI (U251 CNS): 66 µM
- TGI (UACC-257 melanoma): 75.5 µM
- TGI (UACC-62 melanoma): 45.4 µM
- TGI (UO-31 renal): 40.2 µM
- TGI (XF 498 CNS): 48 µM

Structure (SMILES): CCC(C)CN1C(=O)NC(Cc2ccccc2)C1=O (stereo not drawn)
- TGI (A549 NSCLC): > 100 µM
- TGI (ACHN renal): > 100 µM
- TGI (CAKI-1 renal): > 100 µM
- TGI (DLD-1 colon): > 100 µM
- TGI (DMS 114 small cell lung): > 100 µM
- TGI (DMS 273 small cell lung): > 100 µM
- TGI (EKVX NSCLC): > 100 µM
- TGI (HCC-2998 colon): > 100 µM
- TGI (HOP-18 NSCLC): > 100 µM
- TGI (HOP-62 NSCLC): > 100 µM
- TGI (HOP-92 NSCLC): 90.8 µM
- TGI (HT29 colon): > 100 µM
- TGI (KM12 colon): > 100 µM
- TGI (KM20L2 colon): > 100 µM
- TGI (LOX IMVI melanoma): > 100 µM
- TGI (LXFL 529 NSCLC): > 100 µM
- TGI (M14 melanoma): > 100 µM
- TGI (M19-MEL melanoma): > 100 µM
- TGI (MALME-3M melanoma): > 100 µM
- TGI (NCI-H226 lung): > 100 µM
- TGI (NCI-H23 lung): > 100 µM
- TGI (NCI-H460 lung): > 100 µM
- TGI (NCI-H522 lung): > 100 µM
- TGI (OVCAR-5 ovarian): > 100 µM
- TGI (OVCAR-8 ovarian): > 100 µM
- TGI (RXF 393 renal): > 100 µM
- TGI (SF-268 CNS): > 100 µM
- TGI (SF-295 CNS): > 100 µM
- TGI (SF-539 CNS): > 100 µM
- TGI (SK-MEL-2 melanoma): > 100 µM
- TGI (SK-MEL-28 melanoma): > 100 µM
- TGI (SN12C renal): > 100 µM
- TGI (SNB-19 CNS): > 100 µM
- TGI (SNB-75 CNS): > 100 µM
- TGI (SNB-78 CNS): > 100 µM
- TGI (SR leukemia): > 100 µM
- TGI (SW-620 colon): > 100 µM
- TGI (TK-10 renal): > 100 µM
- TGI (U251 CNS): > 100 µM
- TGI (UACC-257 melanoma): 79.5 µM
- TGI (UO-31 renal): > 100 µM
- TGI (XF 498 CNS): > 100 µM
